Measured values taken from the supplement of paper PMC10307832.

Experiments:
Assay in all cases: relative viability (nuclei count vs DMSO), 5 days (fraction); higher = more cells survive
[1] = compound: Nc1ccn([C@@H]2O[C@H](CO)[C@@H](O)C2(F)F)c(=O)n1 [Gemcitabine] + CC(=O)c1c(C)c2cnc(Nc3ccc(N4CCNCC4)cn3)nc2n(C2CCCC2)c1=O [Palbociclib] (partner 0.5 µM)
Procedure, shortened: (§1)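 Lung cancer cell lines in 1536-well plates got either a single drug or a fixed anchor-drug dose together with five library-drug doses (not always all listed) in √10 steps, by pin tool, on the day after seeding. Nuclei were counted after 5 days, and relative viability is the treated-to-vehicle ratio of nuclei counts. Values are medians of duplicate plates.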

[2] = compound: Nc1ccn([C@@H]2O[C@H](CO)[C@@H](O)C2(F)F)c(=O)n1 [Gemcitabine] + CC(C)C[C@H](NC(=O)[C@H](Cc1ccccc1)NC(=O)c1cnccn1)B(O)O [Bortezomib] (partner 0.002 µM)
Procedure, shortened: as §1

[3] = compound: Nc1ccn([C@@H]2O[C@H](CO)[C@@H](O)C2(F)F)c(=O)n1 [Gemcitabine] + Cc1nc(Nc2ncc(C(=O)Nc3c(C)cccc3Cl)s2)cc(N2CCN(CCO)CC2)n1 [Dasatinib] (partner 0.075 µM)
Procedure, shortened: as §1

[4] = compound: Nc1ccn([C@@H]2O[C@H](CO)[C@@H](O)C2(F)F)c(=O)n1 [Gemcitabine] + Cc1nc(NC(=O)N2CCC[C@H]2C(N)=O)sc1-c1ccnc(C(C)(C)C(F)(F)F)c1 [Alpelisib] (partner 2 µM)
Procedure, shortened: as §1

Cell Line | relative viability ([1]; first compound 0.001 µM) | relative viability ([1]; first compound 0.003162 µM) | relative viability ([1]; first compound 0.01 µM) | relative viability ([1]; first compound 0.03162 µM) | relative viability ([1]; first compound 0.1 µM) | relative viability ([2]; first compound 0.001 µM) | relative viability ([2]; first compound 0.003162 µM) | relative viability ([2]; first compound 0.01 µM) | relative viability ([2]; first compound 0.03162 µM) | relative viability ([2]; first compound 0.1 µM) | relative viability ([3]; first compound 0.001 µM) | relative viability ([3]; first compound 0.003162 µM) | relative viability ([3]; first compound 0.01 µM) | relative viability ([3]; first compound 0.03162 µM) | relative viability ([3]; first compound 0.1 µM) | relative viability ([4]; first compound 0.001 µM) | relative viability ([4]; first compound 0.003162 µM) | relative viability ([4]; first compound 0.01 µM) | relative viability ([4]; first compound 0.03162 µM) | relative viability ([4]; first compound 0.1 µM)
NCI-H520 | 0.237 | 0.23 | 0.174 | 0.164 | 0.146 | 0.604 | 0.698 | 0.295 | 0.154 | 0.11 | 0.212 | 0.258 | 0.161 | 0.151 | 0.154 | 0.933 | 0.897 | 0.461 | 0.195 | 0.142
NCI-H661 | 0.394 | 0.409 | 0.411 | 0.241 | 0.237 | 0.838 | 0.655 | 0.491 | 0.213 | 0.209 | 1.07 | 0.814 | 0.428 | 0.176 | 0.18 | 0.594 | 0.503 | 0.185 | 0.177 | 0.172
NCI-H650 | 0.221 | 0.189 | 0.136 | 0.123 | 0.146 | 0.847 | 0.327 | 0.201 | 0.151 | 0.175 | 0.428 | 0.329 | 0.228 | 0.149 | 0.157 | 0.816 | 0.486 | 0.179 | 0.177 | 0.159
NCI-H647 | 0.388 | 0.287 | 0.0692 | 0.0695 | 0.044 | 0.783 | 0.224 | 0.0897 | 0.0721 | 0.0698 | 0.1 | 0.0588 | 0.0298 | 0.0257 | 0.0223 | 1.08 | 0.174 | 0.0715 | 0.0975 | 0.0551
201T | 0.341 | 0.363 | 0.317 | 0.359 | 0.323 | 1.03 | 1.09 | 1.12 | 0.952 | 0.401 | 0.551 | 0.654 | 0.472 | 0.32 | 0.29 | 0.939 | 0.97 | 0.943 | 0.396 | 0.331
NCI-H838 | 0.228 | 0.244 | 0.237 | 0.199 | 0.125 | 0.911 | 0.948 | 1.02 | 0.355 | 0.0993 | 0.293 | 0.287 | 0.318 | 0.261 | 0.136 | 1.05 | 1.17 | 1.14 | 0.557 | 0.169
SW 1573 | 0.432 | 0.308 | 0.131 | 0.0954 | 0.0788 | 1.16 | 0.853 | 0.538 | 0.086 | 0.0926 | 0.481 | 0.258 | 0.0669 | 0.0389 | 0.0494 | 0.749 | 0.592 | 0.295 | 0.0967 | 0.0846
PC-14 | 0.547 | 0.2 | 0.0649 | 0.0528 | 0.0391 | 0.867 | 0.507 | 0.42 | 0.0489 | 0.0512 | 0.262 | 0.12 | 0.0174 | 0.0131 | 0.016 | 1.02 | 0.688 | 0.468 | 0.0826 | 0.0459
COR-L23 | 0.277 | 0.214 | 0.119 | 0.112 | 0.0964 | 1.04 | 0.949 | 0.66 | 0.114 | 0.101 | 0.606 | 0.495 | 0.201 | 0.0891 | 0.0729 | 0.763 | 0.634 | 0.229 | 0.118 | 0.0742
HCC-78 | 0.495 | 0.446 | 0.388 | 0.302 | 0.294 | 0.593 | 0.314 | 0.335 | 0.302 | 0.193 | 0.322 | 0.31 | 0.232 | 0.154 | 0.209 | 0.278 | 0.241 | 0.12 | 0.157 | 0.13
NCI-H2405 | 0.527 | 0.483 | 0.422 | 0.203 | 0.188 | 0.974 | 0.957 | 0.582 | 0.275 | 0.231 | 0.2 | 0.196 | 0.199 | 0.151 | 0.159 | 0.753 | 0.588 | 0.287 | 0.196 | 0.179
SK-LU-1 | 0.386 | 0.312 | 0.283 | 0.184 | 0.221 | 1.16 | 0.281 | 0.23 | 0.175 | 0.224 | 0.165 | 0.123 | 0.106 | 0.112 | 0.131 | 0.745 | 0.337 | 0.246 | 0.224 | 0.192
EMC-BAC-2 | 0.529 | 0.515 | 0.46 | 0.256 | 0.25 | 1.09 | 1.1 | 1.08 | 0.161 | 0.169 | 0.348 | 0.352 | 0.181 | 0.124 | 0.137 | 0.726 | 0.768 | 0.627 | 0.12 | 0.0893
LCLC-97TM1 | 0.17 | 0.135 | 0.134 | 0.0816 | 0.0933 | 0.752 | 0.19 | 0.0897 | 0.0533 | 0.0696 | 0.819 | 0.803 | 0.429 | 0.159 | 0.106 | 0.228 | 0.131 | 0.115 | 0.107 | 0.128
H3255 | 0.348 | 0.347 | 0.286 | 0.285 | 0.264 | 0.848 | 0.547 | 0.576 | 0.19 | 0.199 | 0.333 | 0.38 | 0.349 | 0.225 | 0.296 | 0.8 | 0.403 | 0.472 | 0.185 | 0.168
LXF-289 | 0.606 | 0.604 | 0.428 | 0.127 | 0.14 | 0.995 | 1.02 | 0.768 | 0.178 | 0.0983 | 0.227 | 0.22 | 0.0855 | 0.0424 | 0.0448 | 1.04 | 1 | 0.737 | 0.123 | 0.114
